From PubChem BioAssay AID977614 (Broad Institute, 2014)
The source made the active and inactive calls.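 How the source made its calls: active means parasite count per well reduced by over 3 SD from the mean, with host cell number above 80% of untreated; inactive means the rest.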

System: L. donovani amastigotes in THP-1 macrophages, DAPI imaging, 72 h
Assay: L. donovani intracellular amastigote growth inhibitors, imaging, THP-1 host macrophages, single concentration (AID 977614);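 further: signal is the parasite per host cell ratio from DAPI stained kinetoplasts and nuclei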

`O=C(C1CCOCC1)N1C[C@H]2[C@@H](c3ccccc31)[C@@H](CO)N2C(=O)Cc1ccccn1` was tested. Which AC50 did it give?
Its AC50 is > 10 µM (inactive).

For `C[C@H]1CN([C@@H](C)CO)C(=O)CCCn2nncc2CO[C@H]1CN(C)S(=O)(=O)c1ccc2c(c1)OCCCO2`, which AC50 is on record?
Its AC50 is > 10 µM (inactive).

How did the AC50 turn out when `COc1ccc(NC(=O)N2C[C@@H]3[C@H](c4ccccc42)[C@@H](CO)N3Cc2ccccn2)cc1` was run?
The AC50 was > 10 µM (inactive).

How did the AC50 turn out when `O=C(NC[C@H]1[C@H](c2ccccc2)[C@H](CO)N1Cc1cccnc1)c1ccccn1` was run?
Its AC50 is > 10 µM (inactive).

Which AC50 does the source give for `COc1ccc(CN2[C@H](CO)[C@H]3c4ccccc4NC[C@H]32)cc1` here?
Its AC50 is > 10 µM (inactive).

For `O=C(Nc1ccccc1Cl)N1C[C@@H]2[C@H](c3ccccc31)[C@H](CO)N2C(=O)c1cccnc1`, which AC50 is on record?
Its AC50 is > 10 µM (inactive).

How did the AC50 turn out when `O=C(NC[C@@H]1[C@H](c2ccccc2)[C@@H](CO)N1C(=O)Cc1ccncc1)C1CCC1` was run?
The AC50 was > 10 µM (inactive).

With `CCN(C[C@@H]1N[C@@H](CO)[C@@H]1c1ccccc1)C(=O)c1ccncc1` as the compound, how does the AC50 read?
The AC50 was > 10 µM (inactive).

With `C[C@H]1CN([C@@H](C)CO)C(=O)CCCn2nncc2CO[C@H]1CN(C)C(=O)c1cc(-c2ccccc2)on1` as the compound, how does the AC50 read?
Its AC50 is > 10 µM (inactive).

With `CCC(=O)N1[C@@H]2CN(C(=O)Nc3ccc(Cl)cc3)c3ccccc3[C@@H]2[C@@H]1CO` as the compound, how does the AC50 read?
The AC50 was > 10 µM (inactive).

Which AC50 does the source give for `O=C(c1ccc2c(c1)OCO2)N1C[C@H]2[C@@H](c3ccccc31)[C@@H](CO)N2Cc1cccnc1` here?
The AC50 was > 10 µM (inactive).

Which AC50 does the source give for `Cc1cccc(S(=O)(=O)N2C[C@H]3[C@@H](c4ccccc42)[C@H](CO)N3CC2CCCC2)c1` here?
Its AC50 is > 10 µM (inactive).

For `C[C@H]1CN([C@@H](C)CO)C(=O)CCCn2nncc2CO[C@H]1CN(C)C(=O)Nc1ccc2c(c1)OCCO2`, which AC50 is on record?
The AC50 was > 10 µM (inactive).

`C[C@@H]1CN([C@H](C)CO)C(=O)CCCn2nncc2CO[C@@H]1CN(C)C(=O)c1cc(-c2ccccc2)on1` was tested. Which AC50 did it give?
Its AC50 is > 10 µM (inactive).

`O=S(=O)(c1ccccc1)N1[C@H](CO)[C@H]2c3ccccc3NC[C@H]21` was tested. Which AC50 did it give?
The AC50 was > 10 µM (inactive).

With `COc1ccc(NC(=O)N(C)C[C@H]2OCc3cnnn3CCCC(=O)N([C@H](C)CO)C[C@@H]2C)c(OC)c1` as the compound, how does the AC50 read?
Its AC50 is > 10 µM (inactive).

How did the AC50 turn out when `C/C=C/c1ccc([C@H]2[C@@H](CO)N(C(=O)CC)[C@@H]2CN(C(=O)C2CC2)C(C)C)cc1` was run?
The AC50 was > 10 µM (inactive).

With `C[C@@H]1CN([C@@H](C)CO)C(=O)CCCn2nncc2CO[C@@H]1CN(C)C(=O)Nc1ccccc1C(F)(F)F` as the compound, how does the AC50 read?
The AC50 was > 10 µM (inactive).

How did the AC50 turn out when `CCN(C[C@@H]1[C@@H](c2ccccc2)[C@H](CO)N1C(=O)COC)S(C)(=O)=O` was run?
Its AC50 is > 10 µM (inactive).

How did the AC50 turn out when `O=C(c1ccccn1)N1C[C@@H]2[C@H](c3ccccc31)[C@H](CO)N2C(=O)C1CCCCC1` was run?
The AC50 was > 10 µM (inactive).

For `CC(=O)N1[C@H](CO)[C@H](c2ccccc2)[C@H]1CN(C)S(=O)(=O)c1ccccc1`, which AC50 is on record?
The AC50 was > 10 µM (inactive).

How did the AC50 turn out when `O=C(Nc1ccc(F)cc1)N1C[C@@H]2[C@H](c3ccccc31)[C@@H](CO)N2Cc1ccccc1Cl` was run?
The AC50 was > 10 µM (inactive).

With `CCCN1[C@H](CO)[C@H](c2ccc(C3=CCCC3)cc2)[C@H]1CNC(=O)NC(C)C` as the compound, how does the AC50 read?
The AC50 was > 10 µM (inactive).

`CNC[C@@H]1OCc2cnnn2CCCC(=O)N([C@H](C)CO)C[C@@H]1C` was tested. Which AC50 did it give?
Its AC50 is > 10 µM (inactive).

`O=C(CC(F)(F)F)N1C[C@@H]2[C@H](c3ccccc31)[C@@H](CO)N2Cc1cccnc1` was tested. Which AC50 did it give?
Its AC50 is > 10 µM (inactive).

How did the AC50 turn out when `CCC(=O)NC[C@@H]1[C@@H](c2ccc(-c3ccc(F)cc3)cc2)[C@@H](CO)N1C(=O)CC` was run?
The AC50 was > 10 µM (inactive).

Which AC50 does the source give for `C[C@@H]1CN([C@H](C)CO)C(=O)CCCn2cc(nn2)CO[C@H]1CN(C)C(=O)CCC(F)(F)F` here?
The AC50 was > 10 µM (inactive).

How did the AC50 turn out when `C[C@H]1CN([C@@H](C)CO)C(=O)CCCn2cc(nn2)CO[C@@H]1CN(C)C(=O)Nc1ccc2c(c1)OCO2` was run?
Its AC50 is > 10 µM (inactive).

Which AC50 does the source give for `O=C(c1ccc2c(c1)OCO2)N1C[C@H]2[C@@H](c3ccccc31)[C@H](CO)N2Cc1cccnc1` here?
The AC50 was > 10 µM (inactive).

Which AC50 does the source give for `CN1C[C@@H]2[C@H](c3ccccc31)[C@@H](CO)N2Cc1ccccc1Cl` here?
The AC50 was > 10 µM (inactive).

Which AC50 does the source give for `CC(C)N(C[C@@H]1[C@H](c2ccccc2)[C@@H](CO)N1S(C)(=O)=O)C(=O)CN(C)C` here?
The AC50 was > 10 µM (inactive).

For `O=C(NC[C@H]1[C@H](c2ccccc2)[C@H](CO)N1C(=O)Cc1ccncc1)C1CCC1`, which AC50 is on record?
Its AC50 is > 10 µM (inactive).

Which AC50 does the source give for `COCC(=O)NC[C@@H]1[C@H](c2ccccc2)[C@@H](CO)N1C(=O)c1ccccc1` here?
The AC50 was > 10 µM (inactive).

How did the AC50 turn out when `COCC(=O)N(C)C[C@H]1[C@@H](c2ccccc2)[C@H](CO)N1C(=O)Cc1ccncc1` was run?
Its AC50 is > 10 µM (inactive).

Which AC50 does the source give for `COc1ccc(-c2ccc([C@@H]3[C@H](CN(C)S(C)(=O)=O)N[C@@H]3CO)cc2)cc1` here?
The AC50 was > 10 µM (inactive).

How did the AC50 turn out when `O=C(Nc1ccccc1F)N1C[C@@H]2[C@H](c3ccccc31)[C@@H](CO)N2C(=O)Cc1cccnc1` was run?
Its AC50 is > 10 µM (inactive).

With `C[C@H](CO)N1C[C@H](C)[C@@H](CN(C)C(=O)Nc2cccc(Oc3ccccn3)c2)OCc2cnnn2CCCC1=O` as the compound, how does the AC50 read?
The AC50 was > 10 µM (inactive).

For `O=C(Nc1ccc(F)cc1)N1C[C@@H]2[C@H](c3ccccc31)[C@H](CO)N2C(=O)c1ccncc1`, which AC50 is on record?
The AC50 was > 10 µM (inactive).

`CC(C)NC(=O)N1[C@H](CO)[C@@H](c2ccccc2)[C@H]1CN(C)C(=O)c1cccnc1` was tested. Which AC50 did it give?
The AC50 was > 10 µM (inactive).

Which AC50 does the source give for `O=C(C1CC1)N1C[C@H]2[C@@H](c3ccccc31)[C@H](CO)N2C(=O)c1ccccc1` here?
Its AC50 is > 10 µM (inactive).

With `CCC(=O)N1C[C@H]2[C@@H](c3ccccc31)[C@H](CO)N2C(=O)CC1CC1` as the compound, how does the AC50 read?
The AC50 was > 10 µM (inactive).

For `O=C(Cc1ccccc1)NC[C@H]1N[C@H](CO)[C@@H]1c1ccc(C2=CCCC2)cc1`, which AC50 is on record?
The AC50 was > 10 µM (inactive).

For `C[C@H]1CN([C@@H](C)CO)C(=O)CCCn2cc(nn2)CO[C@@H]1CN(C)C(=O)Oc1ccc2ccccc2c1`, which AC50 is on record?
Its AC50 is > 10 µM (inactive).

`C[C@H](CO)N1C[C@H](C)[C@@H](CN(C)Cc2ccc(C(=O)Nc3ccccc3N)cc2)OCc2cnnn2CCCC1=O` was tested. Which AC50 did it give?
Its AC50 is > 10 µM (inactive).

For `CN1[C@H](CO)[C@@H]2c3ccccc3N(C(=O)C3CCCCC3)C[C@@H]21`, which AC50 is on record?
Its AC50 is > 10 µM (inactive).

How did the AC50 turn out when `O=C(c1ccccn1)N1C[C@H]2[C@@H](c3ccccc31)[C@H](CO)N2C(=O)C1CCCCC1` was run?
Its AC50 is > 10 µM (inactive).

How did the AC50 turn out when `C[C@@H]1CN([C@@H](C)CO)C(=O)CCCn2cc(nn2)CO[C@@H]1CN(C)C(=O)Nc1ccc2c(c1)OCO2` was run?
The AC50 was > 10 µM (inactive).

Which AC50 does the source give for `O=C(NC[C@H]1[C@H](c2ccccc2)[C@@H](CO)N1C(=O)Cc1ccncc1)C1CCC1` here?
The AC50 was > 10 µM (inactive).

With `O=C(NC[C@@H]1[C@@H](c2ccccc2)[C@@H](CO)N1Cc1ccccn1)C1CCCC1` as the compound, how does the AC50 read?
Its AC50 is > 10 µM (inactive).

Which AC50 does the source give for `C[C@@H]1CN([C@H](C)CO)C(=O)CCCn2nncc2CO[C@@H]1CN(C)Cc1ccccc1C(=O)O` here?
Its AC50 is > 10 µM (inactive).

For `C[C@H](CO)N1C[C@H](C)[C@@H](CN(C)C(=O)Nc2cccc3ccccc23)OCc2cn(nn2)CCCC1=O`, which AC50 is on record?
The AC50 was > 10 µM (inactive).

For `C[C@@H]1CN([C@H](C)CO)C(=O)CCCn2cc(nn2)CO[C@@H]1CN(C)C(=O)Nc1ccc2c(c1)OCO2`, which AC50 is on record?
The AC50 was > 10 µM (inactive).

For `COc1ccc(CN(C)C[C@H]2OCc3cnnn3CCCC(=O)N([C@H](C)CO)C[C@H]2C)cc1`, which AC50 is on record?
Its AC50 is > 10 µM (inactive).

`Cc1noc(C)c1S(=O)(=O)N(C)C[C@H]1OCc2cn(nn2)CCCC(=O)N([C@H](C)CO)C[C@@H]1C` was tested. Which AC50 did it give?
Its AC50 is > 10 µM (inactive).
